Reference: BigSolDB 2.1

Nc1cccc(C(=O)O)c1O
solubility (mole fraction)
Conditions | 293.2 K | 298.2 K | 303.2 K | 308.2 K | 313.2 K
in n-propanol | 0.000339 | 0.00046 | 0.000522 | 0.00058 | 0.000681
in water | 0.00012 | 0.000122 | 0.000139 | 0.000148 | 0.000165
